Source: patent publication US11813277B2, “Methods and agents for modulating inflammation” (The Regents of the University of California, priority 2018, dated 2023)
“Also recorded” adds a separate entry of the source.

Tests used:
BMDMs = experiment: Mass spectrometry-based metabolomics of BMDMs; format: cell-based, mouse; settings: IL-4
Experimental: Cell. 173, 470-484. Briefly, cells were seeded in 6-well dishes at 1×10^6 cells/well. Cells were treated with IL-4 with and without etomoxir co-treatments (3 μM or 200 μM) similarly to other experiments. To extract intracellular metabolites, cells were briefly rinsed with cold 150 mM ammonium acetate (pH 7.3), followed by addition of 1 ml cold 80% MeOH on dry ice. Cells were detached with cell scrapers and suspensions transferred into centrifuge tubes. After rigorous mixing, the suspension was pelleted by centrifugation (1.3×104 rpm, 4° C.). The supernatant was transferred into a glass vial, metabolites were dried down under vacuum, and resuspended in 50% (v/v) acetonitrile including heavy isotope-labeled amino acids as internal standards (Chen, W. W., Freinkman, E. and Sabatini, D. M. (2017) Rapid immunopurification of mitochondria for metabolite profiling and absolute quantification of matrix metabolites. Nat. Protoc. 12, 2215-2231).
For the mass spectrometry-based analysis of the sample, 5 μL were injected onto a Luna NH2 (150 mm×2 mm, Phenomenex) column. The samples were analyzed with an UltiMate 3000RSLC (Thermo Scientific) coupled to a Q Exactive mass spectrometer (Thermo Scientific). The Q Exactive was run with polarity switching (+3.50 kV/−3.50 kV) in full scan mode with an m/z range of 65-975. Separation was achieved using A) 5 mM NH4AcO (pH 9.9) and B) ACN. The gradient started with 15% A) going to 90% A) over 18 min, followed by an isocratic step for 9 min and reversal to the initial 15% A) for 7 min. Metabolites were quantified with El Maven (v0.2.4) using accurate mass measurements (≤3 ppm) and retention times of pure standards. Data analysis was performed using the statistical language R. For the PCA and clustering analyses, only metabolites with an ANOVA p-value≤0.05 were incorporated. For visualization using heatmaps, metabolites were scaled across samples but not across metabolites. To assess what metabolites contributed the most to a given metabolic phenotype, we calculated the correlation between the loading vector for a given metabolite and the score vector of a given sample for PCs 1 and 2.

[1] = system: Relma, Mgl2, Ym1, Fabp4, Arg1 expression; experiment: qPCR of IL-4-associated genes in BMDMs; format: cell-based, mouse
Experimental: For all gene expression and flow cytometry experiments described below, day 6 BMDM were plated at 3×10^5 cell/well in 12-well plates. The next day, cells were treated with appropriate compounds (and duration as indicated in figures and below) in DMEM supplemented with 5% FBS, 2 mM L-glutamine, 100 units/mL, 100 μg/mL penicillin/streptomycin, 500 μM of sodium pyruvate and 5% v/v conditioned media containing macrophage colony stimulating factor (M-CSF).
For flow cytometry experiments involving etomoxir (FIG. 1G, FIG. 2A, FIG. 2D, FIG. 3A, FIG. 3B, FIG. 3G, FIG. 3H): BMDMs were mock-treated (media replacement only) or treated with 20 ng/mL of IL-4±3 μM or 200 μM of etomoxir for 48 hr. When measuring expression of M(IL-4)-associated genes in response to etomoxir (FIG. 1H, FIG. 2B), BMDMs were mock-treated or treated with 20 ng/mL of IL4±etomoxir as indicated for 24 hr.
For experiments involving respiratory chain inhibitors: BMDMs were mock-treated (media replacement only) or treated with 20 ng/mL of IL4±1.2 μM oligomycin (Oligo), 200 nM rotenone (Rot), 200 nM antimycin A (AntiA), 100 nM piericidin A (PierA), or 5 μM carboxyatractylate (CAT) for either 24 (FIG. 4G, FIG. 4H, FIG. 6G) or 48 hr (FIG. 4F, FIG. 7D). All inhibitors were given as co-treatments simultaneously with IL-4.
RNA was isolated with TRIzol, then cDNA was synthesized with high-capacity cDNA reverse transcription kit. KAPA SYBR FAST qPCR Master Mix kit and a LightCycler 480 were used for quantitative RT-PCR. Fold change related to the control group was calculated using […] with 36b4 as the reference gene.

respiratory complex I = experiment: Respiration in double-permeabilized HepG2 cells; format: biochemical; settings: 100 μM etomoxir
Experimental: When permeabilized cells were treated with alamethicin to form pores of 3-6 kDa in the mitochondrial inner membrane (“double-permeabilized” cells) and complex I-mediated respiration was directly assessed (FIG. 6F), 10 μg/mL alamethicin was added at 37° C. 15 minutes prior to measurements (Divakaruni, A. S., Andreyev, A. Y., Rogers, G. W., and Murphy, A. N. (2017a) In situ measurements of mitochondrial matrix enzyme activities using plasma and mitochondrial membrane permeabilization agents. Anal. Biochem. 17, 30385-8). Double-permeabilized cells were offered 10 μM cytochrome c in the experimental medium and either 10 mM NADH or 10 mM succinate with 2 μM rotenone to drive respiration.

In the case of `CCOC(=O)[C@@]1(CCCCCCOc2ccc(Cl)cc2)CO1` [etomoxir], the intracellular pantothenate levels (BMDMs; 3 μM etomoxir) is reported as “no change”, the “metabolite profile (PCA)” value (BMDMs; 3 μM etomoxir) is reported as “no appreciable change” and the “intracellular pantothenate levels, increase” value (BMDMs; 200 μM etomoxir) is reported as “three-fold”. The “metabolite composition (PCA)” value (BMDMs; 200 μM etomoxir) was “profound change”, the “gene expression of Relma, Mgl2, Ym1, Fabp4, Arg1” value ([1]; 3 μM etomoxir, IL-4, 24 hr) was “no change” and the “Fabp4 and Arg1 expression” value ([1]; 200 μM etomoxir, IL-4, 24 hr) was “no change”. The “Relma, Mgl2, Ym1 expression” value ([1]; 200 μM etomoxir, IL-4, 24 hr) was “blocked the induction; also recorded: significantly decreased”, the Fabp4 expression ([1]; etomoxir, IL-4) was “unresponsive” and the “oxidation of NADH” value (respiratory complex I) was “inhibit oxidation of NADH”.
